From the NIST ThermoML archive (doi:10.1021/je5009894)
± gives the expanded uncertainty stated by the source.

Assay: mn = molality of the nth substance listed, in mol/kg
Conditions: 298.15 K, 101 kPa, Liquid, Pycnometric method

O=[N+]([O-])[O-].O=[N+]([O-])[O-].[Mn+2] [manganese nitrate] + O
Conditions | mass density [kg/m3]
m1 = 0.0287 | 1000.9 ± 0.7
m1 = 0.1948 | 1023 ± 0.7
m1 = 0.5661 | 1069.9 ± 0.7
m1 = 1.373 | 1162.1 ± 0.7
m1 = 2.006 | 1224 ± 0.8
m1 = 3.484 | 1359 ± 0.8

O=[N+]([O-])[O-].O=[N+]([O-])[O-].O=[N+]([O-])[O-].[Fe+3] [ferric nitrate] + O
Conditions | mass density [kg/m3]
m1 = 0.1102 | 1017.4 ± 0.7
m1 = 0.4672 | 1079.1 ± 0.8
m1 = 1.183 | 1194.2 ± 0.8
m1 = 1.476 | 1235.5 ± 0.8
m1 = 1.907 | 1293.8 ± 0.8
m1 = 2.442 | 1363.6 ± 0.8

O=[N+]([O-])[O-].O=[N+]([O-])[O-].O=[N+]([O-])[O-].[Al+3] [aluminum trinitrate] + O
Conditions | mass density [kg/m3]
m1 = 0.5413 | 1081.6 ± 0.7
m1 = 0.8667 | 1128.8 ± 0.8
m1 = 1.007 | 1148.4 ± 0.7
m1 = 1.507 | 1213.3 ± 0.8
m1 = 2.012 | 1288.7 ± 0.8
m1 = 2.793 | 1355.7 ± 0.8
